Experimental data from publication PMC3314985 (Neuromuscular Disorders, 2012).
Read-outs that look alike come from different tables or passages of the source.

Key:
[1] = system: skeletal muscle sodium channels (native Nav1.4); test: Tonic and use-dependent block of sodium currents; assay type: cell-based, Rana Esculenta; conditions: for eudismic ratio [IC50 distomer/IC50 eutomer]: 10 Hz use-dependent block
[2] = system: hNav1.7; conditions: heterologously expressed; cited from earlier work
[3] = system: pain threshold; conditions: rat, oxaliplatin-induced neuropathic pain; cited from earlier work
[4] = system: hNav1.4; conditions: heterologously expressed; cited from earlier work
[5] = system: skeletal muscle sodium channels (native Nav1.4); conditions: use-dependent block at 10 Hz frequency; cited from earlier work
[6] = system: human serum albumin; conditions: cited from earlier work

In the case of `Cc1cccc(C)c1NC(=O)C1CCN(Cc2ccccc2)C1` (racemic) [To10, 1-benzyl-N-(2,6-dimethylphenyl)pyrrolidine-3-carboxamide], the “eudismic ratio [IC50 distomer/IC50 eutomer]” value (shortened to “eudismic ratio”) [1] is listed as 1.3, the “use-dependent block of hNav1.7” value [2] is listed as “potent use-dependent blocker” and the “reverting the reduction of the pain threshold” value [3] is listed as “more potent than tocainide”. The “use-dependent block of hNav1.4” value [4] was “potent use-dependent blocker”.
In the case of `Cc1cccc(C)c1NC(=O)C1CCCN1Cc1ccccc1` (racemic) [To11, 1-benzyl-N-(2,6-dimethylphenyl)pyrrolidine-2-carboxamide], the “eudismic ratio” value [1] is reported as “greater than 3”.
For `Cc1cccc(C)c1NC(=O)C1CCCN1` (stereo not drawn) [To5, N-(2,6-dimethylphenyl)pyrrolidine-2-carboxamide], the “eudismic ratio” value [5] is listed as > 3.
With `O=C(Nc1ccccc1)C1CCN(Cc2ccccc2)C1` (stereo not drawn) [To13, 1-benzyl-N-phenylpyrrolidine-3-carboxamide] the “fold less potent than To10 during use-dependent blockade” value [1] was 4–5 fold.
With `O=C(Nc1ccc(Cl)cc1)C1CCN(Cc2ccccc2)C1` (stereo not drawn) [To14, 1-benzyl-N-(4-chlorophenyl)pyrrolidine-3-carboxamide] the “fold less potent than To10 during use-dependent blockade” value [1] was 4–5 fold.
For `Cc1cc(C)c(C)c(NC(=O)C2CCN(Cc3ccccc3)C2)c1C` (stereo not drawn) [To15, 1-benzyl-N-(2,3,5,6-tetramethylphenyl)pyrrolidine-3-carboxamide], the “binding activity to human serum albumin” value [6] is listed as “high binding activity”.
In the case of `Cc1cccc(C)c1NC(=O)C1CN(Cc2ccccc2)CCN1` (stereo not drawn) [To32, 4-benzyl-N-(2,6-dimethylphenyl)piperazine-2-carboxamide], the “ratio IC50TB/IC50 UDB” value ([1]; tonic block vs use-dependent block) is reported as “around 12”.
With `Cc1cccc(C)c1NC(=O)C1CCCCN1Cc1ccccc1` (stereo not drawn) [To35, 1-benzyl-N-(2,6-dimethylphenyl)piperidine-2-carboxamide] the “fold less potent than To31 in tonic block” value ([1]; tonic block) was 4 fold and the “fold less potent than To31 in use-dependent block” value ([1]; use-dependent block) was 8 fold.
